The experiment concerns the target T1, GST-ALK5 (Homo sapiens, UniProt P36897).
T1 sequence (P36897 34-503): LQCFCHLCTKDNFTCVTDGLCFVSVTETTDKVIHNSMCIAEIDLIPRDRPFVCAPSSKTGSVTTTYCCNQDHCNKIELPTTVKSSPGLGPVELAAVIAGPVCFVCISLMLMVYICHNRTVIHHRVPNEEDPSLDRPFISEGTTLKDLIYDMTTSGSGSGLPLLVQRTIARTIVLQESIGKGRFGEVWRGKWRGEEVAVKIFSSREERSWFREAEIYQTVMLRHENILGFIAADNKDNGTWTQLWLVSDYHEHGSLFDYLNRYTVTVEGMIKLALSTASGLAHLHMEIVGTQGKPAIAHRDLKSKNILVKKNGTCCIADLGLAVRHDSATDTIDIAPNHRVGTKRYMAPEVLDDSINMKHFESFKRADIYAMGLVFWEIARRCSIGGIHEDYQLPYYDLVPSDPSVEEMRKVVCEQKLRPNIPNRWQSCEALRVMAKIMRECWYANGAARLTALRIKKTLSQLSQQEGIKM
As to the kind of experiment: In-vitro (enzyme) kinase assay, 384-well flashplate, GST-ALK5 with GST-SMAD2 and 33P-ATP (Example 16). It counts as biochemical. Conditions: 31.2 nM GST-ALK5, 439 nM GST-SMAD2, 3 mM ATP, 30° C., 45 min; IC50 classes; read-out: TβR activity (Example 16). The procedure:
In-vitro (Enzyme) Assay for Determination of the Efficacy of Inhibitors of the Inhibition of TGF-Beta-mediated Effects
The kinase assay was carried out as 384-well flashplate assay. 31.2 nM of GST-ALK5, 439 nM of GST-SMAD2 and 3 mM of ATP (with 0.3 μCi of ^33P-ATP/well) were incubated in a total volume of 35 μl (20 mM of HEPES, 10 mM of MgCl2, 5 mM of MnCl2, 1 mM of DTT, 0.1% of BSA, pH 7.4) without or with test substance (5-10 concentrations) at 30° C. for 45 min. The reaction was stopped using 25 μl of 200 mM EDTA solution, filtered with suction at room temperature after 30 min, and the wells were washed with 3 times 100 μl of 0.9% NaCl solution. Radioactivity was measured in the TopCount. The IC50 values were calculated using RS1.

`Fc1ccc(Cl)cc1-c1cc(-c2cncc(-c3cnn(C4CCNCC4)c3)c2)ccn1` [Compound 18, 2′-(5-Chloro-2-fluoro-phenyl)-5-(1-piperidin-4-yl-1H-pyrazol-4-yl)-[3,4′]bipyridinyl]: the IC50 is less than 1000 nM.
Regarding `OCCn1cc(-c2cncc(-c3ccnc(-c4ccccc4F)c3)n2)cn1` [Compound 20, 2-(4-{6-[2-(2-Fluoro-phenyl)-pyridin-4-yl]-pyrazin-2-yl}-pyrazol-1-yl)-ethanol], the IC50 is less than 1000 nM.
The result for `Fc1ccccc1-c1cc(-c2cncc(-c3cnn(CCCN4CCOCC4)c3)c2)ccn1` [Compound 21, 2′-(2-Fluoro-phenyl)-5-[1-(3-morpholin-4-yl-propyl)-1H-pyrazol-4-yl]-[3,4′]bipyridinyl] reads less than 1000 nM.
As for `OCCCn1cc(-c2cncc(-c3ccnc(-c4ccccc4F)c3)c2)cn1` [Compound 22, 3-{4-[2′-(2-Fluoro-phenyl)-[3,4′]bipyridinyl-5-yl]-pyrazol-1-yl}-propan-1-ol], the IC50 is less than 1000 nM.
Turning to `CN1CCN(CCCn2cc(-c3cncc(-c4ccnc(-c5ccccc5F)c4)c3)cn2)CC1` [Compound 23, 2′-(2-Fluoro-phenyl)-5-{1-[3-(4-methyl-piperazin-1-yl)-propyl]-1H-pyrazol-4-yl}-[3,4′]bipyridinyl], the IC50 is less than 1000 nM.
Consider `CN1CCC(n2cc(-c3cncc(-c4ccnc(-c5ccccc5F)c4)c3)cn2)CC1` [Compound 24, 2′-(2-Fluoro-phenyl)-5-[1-(1-methyl-piperidin-4-yl)-1H-pyrazol-4-yl]-[3,4′]bipyridinyl], for which the IC50 was less than 1000 nM.
Regarding `CN1CCN(c2ccc(-c3cncc(-c4ccnc(-c5ccccc5F)c4)c3)cn2)CC1` [Compound 25, 2″-(2-Fluoro-phenyl)-6-(4-methyl-piperazin-1-yl)-[3,3′;5′,4″]terpyridine], the IC50 is less than 1000 nM.
In the case of `Fc1ccccc1-c1cc(-c2cncc(-c3ccc(N4CCNCC4)nc3)c2)ccn1` [Compound 26, 2″-(2-Fluoro-phenyl)-6-piperazin-1-yl-[3,3′;5′,4″]terpyridine], the IC50 was less than 1000 nM.
The result for `Fc1ccccc1-c1cc(-c2cncc(-c3cnn(C4CCNCC4)c3)c2)ccn1` [Compound 27, 2′-(2-Fluoro-phenyl)-5-(1-piperidin-4-yl-1H-pyrazol-4-yl)-[3,4′]bipyridinyl] reads less than 1000 nM; that for `CN(C)CCCn1cc(-c2cncc(-c3ccnc(-c4cc(F)ccc4F)c3)c2)cn1` [Compound 28, (3-{4-[2′-(2,5-Difluoro-phenyl)-[3,4′]bipyridinyl-5-yl]-pyrazol-1-yl}-propyl)-dimethyl-amine], less than 1000 nM; that for `CN(C)CCCn1cc(-c2cncc(-c3ccnc(-c4ccccc4F)c3)c2)cn1` [Compound 29, (3-{4-[2′-(2-Fluoro-phenyl)-[3,4′]bipyridinyl-5-yl]-pyrazol-1-yl}-propyl)-dimethyl-amine], less than 1000 nM.
Regarding `CN(C)CCCn1cc(-c2cncc(-c3ccnc(-c4cc(Cl)ccc4F)c3)c2)cn1` [Compound 30, (3-{4-[2′-(5-Chloro-2-fluoro-phenyl)-[3,4′]bipyridinyl-5-yl]-pyrazol-1-yl}-propyl)-dimethyl-amine], the IC50 is less than 1000 nM.
The result for `OCCn1cc(-c2cncc(-c3ccnc(-c4cc(C(F)(F)F)ccc4F)c3)c2)cn1` [Compound 31, 2-{4-[2′-(2-Fluoro-5-trifluoromethyl-phenyl)-[3,4′]bipyridinyl-5-yl]-pyrazol-1-yl}-ethanol] reads less than 1000 nM; that for `OCCn1cc(-c2cncc(-c3ccnc(-c4cc(F)ccc4F)c3)c2)cn1` [Compound 32, 2-{4-[2′-(2,5-Difluoro-phenyl)-[3,4′]bipyridinyl-5-yl]-pyrazol-1-yl}-ethanol], less than 1000 nM; that for `OCCn1cc(-c2cncc(-c3ccnc(-c4ccccc4F)c3)c2)cn1` [Compound 33, 2-{4-[2′-(2-Fluoro-phenyl)-[3,4′]bipyridinyl-5-yl]-pyrazol-1-yl}-ethanol], less than 1000 nM.
As to `OCCn1cc(-c2cncc(-c3ccnc(-c4cc(Cl)ccc4F)c3)c2)cn1` [Compound 34, 2-{4-[2′-(5-Chloro-2-fluoro-phenyl)-[3,4′]bipyridinyl-5-yl]-pyrazol-1-yl}-ethanol], the IC50 is less than 1000 nM.
The result for `CN1CCC(n2cc(-c3cncc(-c4ccnc(-c5cc(F)ccc5F)c4)c3)cn2)CC1` [Compound 35, 2′-(2,5-Difluoro-phenyl)-5-[1-(1-methyl-piperidin-4-yl)-1H-pyrazol-4-yl]-[3,4′]bipyridinyl] reads less than 1000 nM; that for `CN1CCC(n2cc(-c3cncc(-c4ccnc(-c5cc(C(F)(F)F)ccc5F)c4)c3)cn2)CC1` [Compound 36, 2′-(2-Fluoro-5-trifluoromethyl-phenyl)-5-[1-(1-methyl-piperidin-4-yl)-1H-pyrazol-4-yl]-[3,4′]bipyridinyl], less than 1000 nM.
Take `CN1CCC(n2cc(-c3cncc(-c4ccnc(-c5cc(Cl)ccc5F)c4)c3)cn2)CC1` [Compound 37, 2′-(5-Chloro-2-fluoro-phenyl)-5-[1-(1-methyl-piperidin-4-yl)-1H-pyrazol-4-yl]-[3,4′]bipyridinyl]: the IC50 is less than 1000 nM.
On to `Fc1ccccc1-c1cc(-c2cncc(-c3cnc4ccccc4c3)c2)ccn1` [Compound 39, 2′-(2-Fluoro-phenyl)-5-quinolin-3-yl-[3,4′]bipyridinyl], for which the IC50 lay within 1000 to 10000 nM.
For `Fc1ccccc1-c1cc(-c2cncc(-n3cccn3)c2)ccn1` [Compound 41, 2′-(2-Fluoro-phenyl)-5-pyrazol-1-yl-[3,4′]bipyridinyl], the IC50 is less than 1000 nM.
The result for `Fc1ccccc1-c1cc(-c2cncc(-c3cnc4[nH]c(C(F)(F)F)cc4c3)c2)ccn1` [Compound 42, 2′-(2-Fluoro-phenyl)-5-(2-trifluoromethyl-1H-pyrrolo[2,3-b]pyridin-5-yl)-[3,4′]bipyridinyl] reads 1000 to 10000 nM.
For the compound `CCOc1cc(Nc2cncc(-c3ccnc(-c4ccccc4F)c3)c2)ccn1` [Compound 43, (2-Ethoxy-pyridin-4-yl)-[2′-(2-fluoro-phenyl)-[3,4′]bipyridinyl-5-yl]-amine], the IC50 lay in the range of 1000 to 10000 nM.
The result for `COc1ccc(Nc2cncc(-c3ccnc(-c4ccccc4F)c3)c2)cn1` [Compound 44, [2′-(2-Fluoro-phenyl)-[3,4′]bipyridinyl-5-yl]-(6-methoxy-pyridin-3-yl)-amine] reads 1000 to 10000 nM; that for `CCOCc1cnc(C)nc1Nc1cncc(-c2ccnc(-c3ccccc3F)c2)c1` [Compound 45, (5-Ethoxymethyl-2-methyl-pyrimidin-4-yl)-[2′-(2-fluoro-phenyl)-[3,4′]bipyridinyl-5-yl]-amine], 1000 to 10000 nM.

The record behind these values is patent publication US9051307B2, “Bipyridyl derivatives” (Merck Patent GmbH, priority 2010, dated 2015).
